A short description of data set [1]: Acetic Acid Writhing Test (AAWT), mouse. It is filed as in vivo. The note with it: po, read-out: ED50, analgesic activity, AAWT (Mouse). An excerpt: (§1) Using the procedure described by Koster et al. in Fed. […] 26, Anti-inflammatory Drugs, Ed.
A short description of data set [2]: Carrageenin Pleurisy Assay (CPA), acute anti-inflammatory activity. The class given is in vivo, rat. The following applies: po, read-out: ED50, acute anti-inflammatory activity (CPA): dose required to reduce the 3 hour exudate volume by 50%. On the procedure: Following the procedure described by Vinegar et al. in Proc. Soc. Exp. Biol. Med. 151, 5546, (1976), the acute anti-inflammatory activity of the Compound A (defined in Example 16, vide supra) was compared with that of known anti-inflammatory drugs, i.e., aspirin an acetaminophen in the rat. The average 3 hour exudate volume for each drug treated group was determined and the % inhibition relative to a solvent control group calculated, the ED50 being the dose required to reduce the 3 hour exudate volume by 50%.

The nature of data set [3]: Acetic Acid Writhing Test (AAWT), rat. It is filed as in vivo. The note with it: po, read-out: ED50, analgesic activity, AAWT (Rat).
From the text: as §1
In general terms: Writhing tests count abdominal constrictions after an irritant is injected.

Data set [4] in a line: New Trypsin Hyperalgesic Assay (NTHA). The class given is in vivo. The following applies: po, 1 h, read-out: ED50, analgesic activity, NTHA (Rat): dose which reduced the average pain score 50% relative to solvent control. The method, then: A sensitive mild analgesic assay is the New Trypsin Hyperalgesic Assay (NTHA). At the start of the assay 250 μg of trypsin is injected in one hindlimb of each rat. Thirty minutes later each drug is given per os. One hour after the drugs are given the sensitivity of each rat to a 3.0 kg force is determined.

Data set [5] in a line: Yeast-induced hyperthermia assay, antipyretic activity. The following applies: po; rat, n exceeds 10. It is filed as in vivo. The source says: The Yeast-induced hyperthermia assay was used according to the procedure described by Khalili-Varasteh et al. in Arch. Int. Pharmacodyn.
The nature of the next data set: Toxicity (LD50). The following applies: rat, in vivo; Charles River CD rats, males and females.
Setting [6] is: rat, p.o., 250 μg trypsin in one hindlimb, 3.0 kg force one hour after drug, n exceeds 10.

The structures appear in SMILES notation. A value given as a limit tells only on which side of the number the result lay.

Regarding `CC(=O)Oc1ccccc1C(=O)O` [Aspirin], the ED50 (usually the midpoint of the dose-response relation) in data set [1] (Mus musculus) turned out to be 21 ± 3.4 mg/kg; in data set [2] (Rattus norvegicus, 3 h) it was 28 ± 3.2 mg/kg; in data set [3] (Rattus norvegicus) it was 137 ± 16.9 mg/kg; in data set [4] (Rattus norvegicus), 14 ± 2.7 mg/kg; in data set [5], 50 ± 8.1 mg/kg.

Consider `CC(=O)Nc1ccc(O)cc1` [Acetaminophen], for which the 50% effective dose (ED50) is 13 ± 1.7 mg/kg in data set [4] (setting [6]) and 72 ± 8.6 mg/kg in data set [5].

As for `OC[C@H]1O[C@@H](n2cnc3c(Nc4ccccc4)ccnc32)[C@H](O)[C@@H]1O` [Compound A, 7-anilino-3-β-D-ribofuranosyl-3H-imidazo[4,5-b]pyridine], the ED50 turned out to be 0.33 ± 0.038 mg/kg in data set [1] (mouse, p.o., n exceeds 10); 0.24 ± 0.063 mg/kg in data set [2] (rat, p.o., 3 hour exudate volume, n exceeds 10); 0.74 ± 0.093 mg/kg in data set [3] (rat, p.o., n exceeds 10); 0.1 ± 0.03 mg/kg in data set [4] (setting [6]); 0.65 ± 0.06 mg/kg in data set [5]. The median lethal dose (LD50) – broadly, the dose expected to kill half of the subjects tested – in the data set “Toxicity (LD50)” was above 100 mg/kg.

Source of the values: patent publication US4780452A, “F-substituted-3-β-D-ribofuranosyl-3H-imidazo[4,5-b]pyridines and pharmaceutical compositions thereof” (Burroughs Wellcome Co., priority 1986, dated 1988).
